Values after ≈ are worked out from the molar mass of the structure shown. Like-named read-outs stand apart in the source and are kept apart here.
Key:
in vitro = conditions: human, HepDES19 cells
HBV replication = HBV replication inhibition in HepDES19 cells (strand-preferential qPCR); conditions: Hepatitis B virus
Procedure: Cells used for toxicity and HBV studies.
HBV replication inhibition studies. HepDES19 cells were seeded in 96-well plates at 4×10^4 cells per well in the absence of tetracycline. Test compounds in a final DMSO concentration of 1% were applied to cells 48 hours after induction of HBV replication and cells were incubated with compounds for 72 hours. Cells were washed in 200 μL of phosphate buffered saline (PBS) and lysed in 150 μL of core lysis buffer (10 mM Tris pH 7.4, 1% Tween20, 150 mM NaCl). Cells were incubated at room temperate on an orbital shaker at 350 rpm for 40 minutes. Cell lysate was transferred to a 96 well polymerase chain reaction (PCR) plate and centrifuged at 3300×g for 5 minutes. The supernatant (50 μL) from the cell lysate was transferred to a 96-well PCR plate and mixed with 20 units of micrococcal nuclease and 100 μM CaCl2. The lysate was incubated for 1 hour at 37° C., and then the nuclease was inactivated at 70° C. for ten minutes. Qiagen protease (0.005 Anson units) was added to the lysate and the mixture was incubated overnight. Qiagen protease was then inactivated at 95° C. for ten minutes.
The crude lysate was used as the template for strand-preferential quantitative polymerase chain reaction (q-PCR) analysis. Quantitative PCR was performed with 40 cycles of 95° C. for 15 s and 60° C. for 1 minute employing the Kappa Probe Force universal PCR master mix.

HSV-1 = assay: Anti-HSV-1 replication assay (Vero cells, plaque titer); type: cell-based, herpes simplex virus 1; conditions: for log reduction at 5 µM / log reduction at 1 µM / log reduction at 0.33 µM: Human alphaherpesvirus 1, Vero, values separated by / are repeats; for log reduction at 5 µM: compound at 5 μM; for log reduction at 1 µM: compound at 1 μM; for log reduction at 0.33 µM: compound at 0.33 μM, read-out: HSV-1 suppression 0.33 μM
human RNaseH1 = target: T1, human RNaseH1 (Homo sapiens, UniProt O60930); assay: Biochemical inhibition of human RNaseH1 activity
T1 sequence (O60930 1-286): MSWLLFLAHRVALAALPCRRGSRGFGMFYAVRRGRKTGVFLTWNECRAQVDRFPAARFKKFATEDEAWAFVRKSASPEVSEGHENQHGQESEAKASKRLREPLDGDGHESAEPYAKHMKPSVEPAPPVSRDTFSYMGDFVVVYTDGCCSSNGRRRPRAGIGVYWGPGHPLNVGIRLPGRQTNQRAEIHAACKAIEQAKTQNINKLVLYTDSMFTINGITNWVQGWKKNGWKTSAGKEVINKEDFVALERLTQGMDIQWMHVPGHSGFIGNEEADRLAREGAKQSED
Procedure: Biochemical inhibition of human RNaseH1 activity. Quantitative inhibition of the human RNaseH1 in the biochemical assays was assessed using a molecular beacon assay as described previously (Edwards et al., 2017). Recombinant human RNaseH 1 (0.3 μg) was incubated with 100 nM RNA:DNA substrate, 50 mM HEPES pH 8.0, 100 mM NaCl, 2 mM Tris(2-carboxyethyl)phosphine hydrochloride (TCEP), 0.05% Tween20, 5 units of RNaseOut, test compounds (0 to 500 μM), and 5% DMSO in a 100 μL reaction volume. The substrate was formed by annealing a complementary RNA oligonucleotide to a hairpin DNA oligonucleotide to hold the hairpin DNA oligonucleotide in an open conformation. The DNA oligonucleotide has a 5′ fluorescein reporter and a 3′ black hole quencher. When the RNA is degraded from the substrate the DNA oligonucleotide closes to form a hairpin structure, decreasing in signal intensity. Reactions were initiated with 5 mM MgCl2 and fluorescence was read using a Synergy HTS multi-mode plate reader at 37° C. Alternatively, the HBV RNaseH version used was MBP-HRHgtCΔ5, a genotype C isolate which lacks the C-terminal 35 amino acids of the HBV RNaseH domain that are predicted to be unstructured. Quantitative inhibition of the human RNaseH1 in biochemical assays was assessed using a FRET-based RNaseH assay under conditions previously reported for an RNaseH molecular beacon assay (Edwards et al., 2017). […] Cleavage of the RNA strand released the fluorescein from quenching, increasing fluorescence. Reactions were monitored for 90 min at 37° C. in a plate reader and initial reaction rates were calculated. Reactions contained escalating concentrations of the compounds.

[1] = system: C. neoformans var. grubii, KN99; assay: C. neoformans growth inhibition assay (limiting dilution); type: cell-based, Cryptococcus neoformans; conditions: Cryptococcus neoformans
Procedure: Cell types used for C. neoformans studies. All inhibition assays were performed with C. neoformans var. grubii, KN99 (serotype A, MAT). Two clinical strains of C. neoformans var. grubii, serotype A, were provided by Tamara Doering and Andre Spec. […] Cells were diluted to OD650 0.001 in YNB-02 02 (0.67% yeast nitrogen base, 0.2% dextrose, pH 7.0 with 50 mM MOPs)+1% DMSO prior to addition to the plates for the inhibition assays.
C. neoformans growth inhibition assays. Compounds were tested in a limiting dilution assay with a starting optical density (at 650 nm) of 0.001 in YNB-02 plus 1% DMSO. Cells plus compound were incubated in 96-well clear round bottom plates covered with a Breath-easy® membrane without shaking for 48 hours at 35° C. Before measuring cell density, plates were shaken on a microtiter plate shaker at 900 rpm for 3 minutes to resuspend cells and optical density was measured at 650 nm. […] Each assay was done in triplicate and all values are the average of two or more independent assays. The data are presented as the average cell density as a percent of DMSO-only treated cells. MICs are reported as the minimal concentration needed to inhibit 80% of C. neoformans growth relative to vehicle-treated controls.

[2] = HepDES19, 72 h, Table 2 amides, HBV replication, HepDES19 cells, plus-polarity DNA, 72 h
[3] = Table 2 amides, read-out: HSV-1 suppression 5 μM
[4] = Table 2 amides, read-out: HuRH1 IC50
[5] = 48 h, Table 2 amides, 48 h, 35° C., tested 0.19 to 50 μM, read-out: C. neoformans MIC80
[6] = HepDES19, read-out: EC50 against HBV replication
[7] = CC50, Table 3 sulfur compounds, MTT
[8] = HepDES19, read-out: HBV EC50, Table 3 sulfur compounds, HBV replication, HepDES19 cells
[9] = Table 3 sulfur compounds, read-out: HSV-1 suppression 1 μM
[10] = Table 3 sulfur compounds, read-out: HSV-1 suppression 5 μM
[11] = 48 h, Table 3 sulfur compounds, 48 h, 35° C., read-out: C. neoformans MIC80
[12] = read-out: MIC80 against C. neoformans

SMILES | CC50 at 24 h (in vitro; CC50 (μM), Table 2 amides, MTT) | EC50 (HBV replication; [2]) | IC50 (human RNaseH1; [4]) | MIC80 [1, 5] | CC50 at 24 h (in vitro; [7]) | EC50 (HBV replication; [8]) | log reduction at 1 µM (HSV-1; [9]) | log reduction at 5 µM (HSV-1; [10]) | MIC80 [1, 11] | also measured
C#CCCC1(CCNC(=O)c2cc(O)c(=O)c(O)cc2C)N=N1 [compound 384] | 17.6 ± 8.9 µM | 0.66 ± 0.7 µM | 111 ± 48.8 µM | 3.5 µM (≈ 1.1 µg/mL) | – | – | – | – | – | log reduction at 5 µM (HSV-1; [3]): 0.77
Cc1cc(O)c(=O)c(O)cc1C(=O)N1CCCCC1 [compound 390] | 24.9 ± 11.6 µM | 0.31 ± 0.1 µM | 106 ± 64.6 µM | 22 µM (≈ 5.79 µg/mL) | – | – | – | – | – | CC50 at 24 h (in vitro; CC50): > 20 µM; EC50 (HBV replication; [6]): 0.31 µM; log reduction at 5 µM (HSV-1; [3]): 0.52
CC(C)S(=O)(=O)c1ccc(S(=O)(=O)C(C)C)c(O)c(=O)c1O [compound 538] | – | – | – | – | 100 µM | 50 µM | 0.74 | 0.21 | 50 µM (≈ 17.5 µg/mL) | CC50 at 24 h (in vitro; CC50): 100 µM
CCCCSc1cccc(O)c(=O)c1O [compound 693] | – | – | – | – | 13.5 µM | 47.3 µM | 0.25 | 5.64 | 0.9 µM (≈ 0.204 µg/mL) | MIC80 [1, 12]: ≤ 1 µM
CC(C)Sc1cccc(O)c(=O)c1O [compound 695] | – | – | – | – | 21.1 µM | 26.8 µM | -0.23 | 2.28 | 1.6 µM (≈ 0.34 µg/mL) | –
CC(C)Sc1ccc(SC(C)C)c(O)c(=O)c1O [compound 696] | – | – | – | – | 9.3 µM | 12.7 µM | 0.08 | 5.82 | 1.4 µM (≈ 0.401 µg/mL) | log reduction at 0.33 µM (HSV-1; Table 3 sulfur compounds): -0.06
Cc1ccc(S(=O)(=O)c2cccc(O)c(=O)c2O)cc1 [compound 697] | – | – | – | – | 35.3 µM | 49.1 µM | – | 0.01 | 49 µM (≈ 14.3 µg/mL) | –
CCCCCCS(=O)(=O)c1cccc(O)c(=O)c1O [compound 699] | – | – | – | – | 13.1 µM | 6.83 µM | 0.2 | 4.39 | 10 µM (≈ 2.86 µg/mL) | –
CCCCCCS(=O)(=O)c1ccc(S(=O)(=O)CCCCCC)c(O)c(=O)c1O [compound 700] | – | – | – | – | 46 µM | 49.8 µM | 0.57 | 2.01 | 50 µM (≈ 21.7 µg/mL) | log reduction at 0.33 µM (HSV-1; Table 3 sulfur compounds): 0.49; Inhibition of HSV-1 (HSV-1; in words): showed inhibition of HSV-1
O=c1c(O)cccc(SCc2ccccc2)c1O [compound 702] | – | – | – | – | – | 25 µM | 3.23 | 5.79 | 0.56 µM (≈ 0.146 µg/mL) | log reduction at 0.33 µM (HSV-1; Table 3 sulfur compounds): 0.13; IC50 (human RNaseH1; Table 3 sulfur compounds, read-out: Hu RNaseH IC50): 31.7 µM; MIC80 [1, 12]: ≤ 1 µM
O=c1c(O)c(S(=O)(=O)Cc2ccccc2)ccc(S(=O)(=O)Cc2ccccc2)c1O [compound 706] | – | – | – | – | 73 µM | 51.4 µM | – | 0.59 | 49 µM (≈ 21.9 µg/mL) | –
COC(=O)[C@H](CCSC)NC(=O)c1cc(O)c(=O)c(O)cc1C [compound 796] | 36 ± 24.1 µM | 1.1 ± 0.1 µM | 83.3 ± 40.2 µM | 18 µM (≈ 6.14 µg/mL) | – | – | – | – | – | –
Cc1cc(O)c(=O)c(O)cc1C(=O)N1CCN(C(=O)c2ccco2)CC1 [compound 800] | 16.5 ± 11.4 µM | 0.52 ± 0.2 µM | 46.3 ± 10.2 µM | 26 µM (≈ 9.32 µg/mL) | – | – | – | – | – | –
CCCCCCSc1ccc(SCCCCCC)c(O)c(=O)c1O [compound 841] | – | – | – | – | 7.8 µM | 10.7 µM | – | – | – | log reduction at 1 µM (HSV-1; read-out: HSV-1 suppression 1 μM, Table 3 sulfur compounds): 4.99; log reduction at 5 µM (HSV-1; read-out: HSV-1 suppression 5 μM, Table 3 sulfur compounds): 4.77; MIC80 ([1]; 48 h, read-out: C. neoformans MIC80, Table 3 sulfur compounds, 48 h, 35° C.): 5 µM (≈ 1.85 µg/mL)
Cc1cc(O)c(=O)c(O)cc1C(=O)N1CCN(C(=O)c2cccnc2)CC1 [compound 918] | 43.8 ± 10.7 µM | 1.45 ± 0.4 µM | 127 ± 98.1 µM | 50 µM (≈ 18.5 µg/mL) | – | – | – | – | – | –
Cc1cc(O)c(=O)c(O)cc1C(=O)N1CCN(c2ncccn2)CC1 [compound 1016] | 24.6 ± 40 µM | 0.9 µM | 5.1 ± 2.7 µM | 18 µM (≈ 6.16 µg/mL) | – | – | – | – | – | –
Cc1cc(O)c(=O)c(O)cc1C(=O)N1CCN(C(c2ccc(F)cc2)c2ccc(F)cc2)CC1 [compound 1017] | 3.9 ± 1.4 µM | 5.6 µM | 29.9 ± 10.7 µM | 6 µM (≈ 2.8 µg/mL) | – | – | – | – | – | EC50 (HBV replication; [6]): > 2 µM
Cc1cc(O)c(=O)c(O)cc1C(=O)N1CCN(Cc2c(F)cccc2Cl)CC1 [compound 1021] | 10.4 ± 7.3 µM | 3.05 ± 0.6 µM | 44 ± 46.2 µM | 4.5 µM (≈ 1.83 µg/mL) | – | – | – | – | – | EC50 (HBV replication; [6]): > 2 µM

From patent US12606529B2, “Sulfur and amide tropolone inhibitors of nucleotidyl transferases and uses therefor” (Saint Louis University, priority 2019, dated 2026)
